Experimental data from US20140227375A1, “PIP-2 Inhibition-Based Antiviral and Anti-Hyperlipidemic Therapies” (priority 2008, published 2014).

Molecular target: HCV replication
Experiment: Luciferase reporter-linked transient HCV replication assay (FL-J6/JFH-5′C19Rluc2AUbi RNA)
Type: cell-based, hepatitis C virus (HCV)
Procedure: FIGS. 7A-7B. A PIP-2 ligand inhibits HCV replication in a dose-dependent manner. Luciferase reporter-linked HCV replication assay. Huh 7.5 cells were electroporated with 10 ug of in vitro-transcribed wild type, FL-J6/JFH-5′C19Rluc2AUbi RNAs. Electroporated cells were treated with […] of neomyin. Renilla luciferase activities were measured at 5 days after electroporation. Alamar blue assays were performed to compare relative cell viabilities.
The NS5A PIP2 interaction is amenable to pharmacologic disruption. […] Such inhibitors represent a valuable new class of anti-HCV agents to be included in future therapeutic cocktails designed to maximize efficiency of, and minimize resistance to, therapies for treating hepatitis C.
The electroporated cells were diluted in 18 ml of cell culture medium. 1 ml of cells was aliquoted in 6 well tissue culture plates. Electroporated cells were treated with 0, 172, 345, 689, 1378, and 2756 μM of neomyin for 5 days. Renilla luciferase activities were measured by using renilla luciferase kit from Promega (Madison, Wis.).

Question: What does the source list for neomycin?
Answer: EC50 (Renilla luciferase activity 5 days after electroporation, read-out: EC50 against HCV replication): 200 µM; inhibition of HCV genome replication (increasing concentrations of neomycin (0-2756 μM), 5 days): dose-dependent increase in inhibition of HCV genome replication
